# Tests used:
# Test in all cases: relative viability (nuclei count vs DMSO), 5 days (fraction); higher = more cells survive
# DM3189 + Navitoclax = compound: C1CN(CCN1)C2=CC=C(C=C2)C3=CN4C(=C(C=N4)C5=CC=NC6=CC=CC=C56)N=C3 [DM3189] + CC1(C)CCC(c2ccc(Cl)cc2)=C(CN2CCN(c3ccc(C(=O)NS(=O)(=O)c4ccc(N[C@H](CCN5CCOCC5)CSc5ccccc5)c(S(=O)(=O)C(F)(F)F)c4)cc3)CC2)C1 [Navitoclax] (partner 0.5 µM)
# How it was run: (§1)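 After 5 days of treatment, lung cancer cells in 1536-well plates were fixed and stained in a single step (final 0.05% Triton X-100, 1% formaldehyde, 1 ug/ml Hoechst) and their nuclei counted on 4× images. Treatment had been applied by pin tool the day after seeding as one drug alone or as a fixed anchor-drug dose with five library-drug doses (not always all listed) in √10 steps. Relative viability is the nuclei count of treated wells divided by that of vehicle wells, and values are medians of duplicate plates.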
# DM3189 + Foretinib = compound: C1CN(CCN1)C2=CC=C(C=C2)C3=CN4C(=C(C=N4)C5=CC=NC6=CC=CC=C56)N=C3 [DM3189] + COc1cc2c(Oc3ccc(NC(=O)C4(C(=O)Nc5ccc(F)cc5)CC4)cc3F)ccnc2cc1OCCCN1CCOCC1 [Foretinib] (partner 0.25 µM)
# How it was run: as §1
# DM3189 + Dasatinib = compound: C1CN(CCN1)C2=CC=C(C=C2)C3=CN4C(=C(C=N4)C5=CC=NC6=CC=CC=C56)N=C3 [DM3189] + Cc1nc(Nc2ncc(C(=O)Nc3c(C)cccc3Cl)s2)cc(N2CCN(CCO)CC2)n1 [Dasatinib] (partner 0.075 µM)
# How it was run: as §1
# DM3189 + Decitabine = compound: C1CN(CCN1)C2=CC=C(C=C2)C3=CN4C(=C(C=N4)C5=CC=NC6=CC=CC=C56)N=C3 [DM3189] + Nc1ncn([C@H]2C[C@H](O)[C@@H](CO)O2)c(=O)n1 [Decitabine] (partner 2 µM)
# How it was run: as §1
# DM3189 + Olaparib = compound: C1CN(CCN1)C2=CC=C(C=C2)C3=CN4C(=C(C=N4)C5=CC=NC6=CC=CC=C56)N=C3 [DM3189] + O=C(c1cc(Cc2n[nH]c(=O)c3ccccc23)ccc1F)N1CCN(C(=O)C2CC2)CC1 [Olaparib] (partner 8 µM)
# How it was run: as §1
Cell Line,relative viability (DM3189 + Navitoclax; first compound 0.08 µM),relative viability (DM3189 + Navitoclax; first compound 0.253 µM),relative viability (DM3189 + Navitoclax; first compound 0.8 µM),relative viability (DM3189 + Navitoclax; first compound 2.53 µM),relative viability (DM3189 + Foretinib; first compound 0.08 µM),relative viability (DM3189 + Foretinib; first compound 0.253 µM),relative viability (DM3189 + Foretinib; first compound 2.53 µM),relative viability (DM3189 + Dasatinib; first compound 0.08 µM),relative viability (DM3189 + Dasatinib; first compound 0.253 µM),relative viability (DM3189 + Dasatinib; first compound 2.53 µM),relative viability (DM3189 + Decitabine; first compound 0.08 µM),relative viability (DM3189 + Decitabine; first compound 0.253 µM),relative viability (DM3189 + Decitabine; first compound 0.8 µM),relative viability (DM3189 + Decitabine; first compound 2.53 µM),relative viability (DM3189 + Olaparib; first compound 0.08 µM),relative viability (DM3189 + Olaparib; first compound 0.253 µM),relative viability (DM3189 + Olaparib; first compound 0.8 µM),relative viability (DM3189 + Olaparib; first compound 2.53 µM),relative viability (DM3189 + Foretinib; first compound 0.8 µM),relative viability (DM3189 + Dasatinib; first compound 0.8 µM)
HCC-366,0.955,1.06,0.842,1.04,0.939,0.975,0.936,0.943,0.759,0.846,0.396,0.293,0.269,0.341,0.312,0.325,0.311,0.416,,
NCI-H1651,1.17,1.13,1.13,0.928,0.83,0.716,0.827,0.386,0.571,0.462,0.703,0.646,0.626,0.67,0.191,0.179,0.168,0.177,0.831,0.58
LC-2-ad,0.59,0.532,0.435,0.358,1.08,0.926,0.992,0.636,0.487,0.572,0.851,0.77,0.826,0.916,0.713,0.66,0.652,0.747,0.931,0.458
HCC-827,0.958,0.942,0.887,1.02,1.1,0.945,0.935,0.378,0.276,0.378,0.34,0.311,0.324,0.296,0.665,0.573,0.511,0.698,0.953,0.317
SW 1573,1.11,0.964,0.901,1.25,1,0.737,0.99,0.741,0.389,0.382,0.616,0.381,0.46,0.263,0.543,0.449,0.441,0.106,1.05,0.46
COR-L 105,0.861,0.675,0.729,0.816,1.22,1.23,1.17,0.427,0.449,0.327,0.781,0.689,0.535,0.635,0.855,0.772,0.545,0.812,1.06,0.348
LOU-NH91,0.762,0.688,0.523,0.607,1.08,0.942,0.96,0.688,0.541,0.475,0.854,0.799,0.739,0.863,0.921,0.896,0.76,0.92,0.891,0.51
NCI-H727,0.461,0.373,,0.511,0.792,0.821,0.818,0.364,0.336,0.299,0.886,0.769,0.846,0.976,0.696,0.69,0.649,0.764,0.668,
LU99A,0.828,0.787,,0.83,0.82,0.731,0.661,0.748,0.565,0.595,1.09,0.837,,0.777,0.296,0.274,,0.264,,
NCI-H1650,1.24,1.11,1.21,1.13,1.04,1.18,1.12,0.333,0.391,0.316,0.367,0.462,0.366,0.425,0.801,0.712,0.738,0.838,1.21,0.304
UMC-11,0.287,0.322,0.295,0.265,1.01,0.975,1.02,0.467,0.429,0.401,0.616,0.506,0.602,0.511,0.395,0.37,0.35,0.458,0.988,0.467
HOP-62,1.09,0.994,0.989,1.17,1.05,1.07,1.16,0.78,0.65,0.68,0.214,0.203,0.193,0.21,0.347,0.547,0.167,0.404,1.04,0.716
NCI-H1993,,0.883,0.646,0.999,0.766,0.744,0.907,0.657,0.552,0.504,0.579,0.654,0.571,0.499,1.05,1.13,1.02,1.13,0.672,0.505
NCI-H1734,0.903,0.81,0.774,0.844,0.888,0.829,0.823,0.476,0.46,0.414,0.528,0.506,0.49,0.524,0.61,0.588,0.563,0.63,0.756,0.499
EKVX,0.816,0.899,0.9,1.07,0.892,0.82,0.803,0.542,0.473,0.518,0.331,,0.359,0.363,1.06,,0.517,0.814,0.539,0.457
HARA,1.13,1.09,1.08,1.21,0.979,0.454,1.09,0.358,0.262,0.313,0.523,0.574,0.531,0.555,1.23,0.733,0.579,0.654,0.87,0.306

Cell Line,relative viability (DM3189 + Navitoclax; first compound 0.08 µM),relative viability (DM3189 + Navitoclax; first compound 0.253 µM),relative viability (DM3189 + Navitoclax; first compound 0.8 µM),relative viability (DM3189 + Navitoclax; first compound 2.53 µM),relative viability (DM3189 + Foretinib; first compound 0.08 µM),relative viability (DM3189 + Foretinib; first compound 0.253 µM),relative viability (DM3189 + Foretinib; first compound 2.53 µM),relative viability (DM3189 + Dasatinib; first compound 0.08 µM),relative viability (DM3189 + Dasatinib; first compound 0.253 µM),relative viability (DM3189 + Dasatinib; first compound 2.53 µM),relative viability (DM3189 + Decitabine; first compound 0.08 µM),relative viability (DM3189 + Decitabine; first compound 0.253 µM),relative viability (DM3189 + Decitabine; first compound 0.8 µM),relative viability (DM3189 + Decitabine; first compound 2.53 µM),relative viability (DM3189 + Olaparib; first compound 0.08 µM),relative viability (DM3189 + Olaparib; first compound 0.253 µM),relative viability (DM3189 + Olaparib; first compound 0.8 µM),relative viability (DM3189 + Olaparib; first compound 2.53 µM),relative viability (DM3189 + Foretinib; first compound 0.8 µM),relative viability (DM3189 + Dasatinib; first compound 0.8 µM)
EMC-BAC-2,1.13,1.14,1.13,1.02,0.981,0.966,1.18,0.372,0.32,0.353,0.954,0.968,0.909,1.01,0.5,0.455,0.339,0.492,0.938,0.319
PC-3 [JPC-3],0.826,0.83,0.859,0.892,1.09,1.1,1.08,1.12,1.07,0.966,0.848,0.802,0.797,0.797,1.17,1.11,1.08,1.05,0.993,1.16
NCI-H596,1.01,1.09,0.917,1.06,1.12,0.955,1.06,0.747,0.71,0.609,1.09,1.09,0.842,1.19,0.588,0.646,0.702,0.747,0.695,0.497
NCI-H1755,0.926,0.904,0.701,0.965,0.914,0.855,0.826,0.429,0.401,0.411,0.739,0.694,0.729,0.671,0.821,0.831,0.717,0.922,0.718,0.388
NCI-H2126,0.827,0.873,0.756,0.861,1.14,1.11,1.16,0.742,0.568,0.503,0.558,0.547,0.53,0.61,0.99,0.89,0.896,0.991,1.18,0.446
NCI-H2085,1.2,1.16,1.19,1.11,0.982,1.02,1.01,0.28,0.274,0.28,0.504,0.565,0.564,0.591,0.735,0.804,0.804,0.883,0.925,0.318
NCI-H2087,1.09,0.933,1.04,1.08,1.28,1.18,0.969,0.97,0.77,0.768,0.269,0.249,0.284,0.275,0.511,0.563,0.505,0.316,1.07,0.784
LCLC-97TM1,0.291,0.243,0.39,0.519,0.877,0.857,0.747,0.768,0.591,0.375,0.263,0.201,0.197,0.228,0.415,0.314,0.281,0.397,0.765,0.591
201T,1.17,1.21,1.18,1.23,1.01,1.03,1.27,0.589,0.543,0.557,0.831,0.817,0.828,0.875,0.822,0.882,0.859,0.765,0.73,0.385
NCI-H1915,0.772,0.777,0.729,0.857,1.09,1.07,1.03,0.46,0.317,0.286,0.261,0.253,0.257,0.257,0.264,0.253,0.222,0.231,0.875,0.289
BEN,0.448,0.0733,0.0662,0.0697,0.79,0.582,0.734,0.314,0.295,0.33,0.7,0.707,0.714,0.752,1.13,1.12,0.852,1.08,0.533,0.319
NCI-H2405,0.758,0.802,0.873,0.89,1.04,1.06,1.05,0.215,0.204,0.214,0.744,0.744,0.691,0.756,0.919,0.858,0.781,0.793,1.02,0.201
H3255,0.685,0.577,0.559,0.5,1.13,0.936,0.85,0.553,0.303,0.32,0.718,0.748,0.473,0.71,0.576,0.573,0.547,0.627,0.764,0.442
NCI-H460,1.2,1.18,0.996,0.904,0.951,1.03,1.34,0.728,0.532,0.666,0.449,0.468,0.438,0.555,0.449,0.415,0.325,0.619,0.995,0.47
NCI-H23,0.917,0.794,0.742,0.741,1.01,0.861,0.982,0.878,0.713,0.749,0.308,0.304,0.284,0.314,0.253,0.305,0.233,0.294,0.882,0.716

# From the supplement of paper PMC10307832
